From patent US20260159499A1, “COMPOUND AS FAK INHIBITOR AND USE THEREOF” (WIGEN BIOMEDICINE TECHNOLOGY (SHANGHAI) CO., LTD., priority 2021, published 2026)

Tests used:
PC3 cells [1] = test: PC3 cell proliferation, 2D activity detection; format: cell-based, human; settings: Homo sapiens, PC-3; PC3, 2D, 72 h, class symbol; read-out: 2D IC50 against PC3 cells
Method: 2D activity detection: 1200 PC3 cells were seeded in a 96-well plate. After overnight adherence culture, the compound serially diluted was added. 72 h after addition, Cell Titer-Lumi (Beyotime C0068XL) was added to measure the ATP content in the cells. The growth of the cells was evaluated, and IC50 of the compounds against cell growth was calculated.

PC3 cells [2] = test: PC3 cell proliferation, 3D activity detection; format: cell-based, human; settings: Homo sapiens, PC-3, 336 h; PC3, 3D culture, 14 days, class symbol; read-out: 3D IC50 against PC3 cells
Method: 3D activity detection: PC3 cells were seeded in a 96-well plate at 1200 cells/well, and 3D culture was performed. 14 days after the compound serially diluted was added, the growth of the cells was determined. The inhibition percentage and IC50 of the compound were calculated compared to the DMSO control group.

FAK recombinant protein = FAK recombinant protein (Homo sapiens, UniProt Q05397); test: Inhibitory activity against FAK enzyme; format: biochemical; settings: TK substrate, ATP
FAK recombinant protein, sequence (Q05397 whole entry, species assumed): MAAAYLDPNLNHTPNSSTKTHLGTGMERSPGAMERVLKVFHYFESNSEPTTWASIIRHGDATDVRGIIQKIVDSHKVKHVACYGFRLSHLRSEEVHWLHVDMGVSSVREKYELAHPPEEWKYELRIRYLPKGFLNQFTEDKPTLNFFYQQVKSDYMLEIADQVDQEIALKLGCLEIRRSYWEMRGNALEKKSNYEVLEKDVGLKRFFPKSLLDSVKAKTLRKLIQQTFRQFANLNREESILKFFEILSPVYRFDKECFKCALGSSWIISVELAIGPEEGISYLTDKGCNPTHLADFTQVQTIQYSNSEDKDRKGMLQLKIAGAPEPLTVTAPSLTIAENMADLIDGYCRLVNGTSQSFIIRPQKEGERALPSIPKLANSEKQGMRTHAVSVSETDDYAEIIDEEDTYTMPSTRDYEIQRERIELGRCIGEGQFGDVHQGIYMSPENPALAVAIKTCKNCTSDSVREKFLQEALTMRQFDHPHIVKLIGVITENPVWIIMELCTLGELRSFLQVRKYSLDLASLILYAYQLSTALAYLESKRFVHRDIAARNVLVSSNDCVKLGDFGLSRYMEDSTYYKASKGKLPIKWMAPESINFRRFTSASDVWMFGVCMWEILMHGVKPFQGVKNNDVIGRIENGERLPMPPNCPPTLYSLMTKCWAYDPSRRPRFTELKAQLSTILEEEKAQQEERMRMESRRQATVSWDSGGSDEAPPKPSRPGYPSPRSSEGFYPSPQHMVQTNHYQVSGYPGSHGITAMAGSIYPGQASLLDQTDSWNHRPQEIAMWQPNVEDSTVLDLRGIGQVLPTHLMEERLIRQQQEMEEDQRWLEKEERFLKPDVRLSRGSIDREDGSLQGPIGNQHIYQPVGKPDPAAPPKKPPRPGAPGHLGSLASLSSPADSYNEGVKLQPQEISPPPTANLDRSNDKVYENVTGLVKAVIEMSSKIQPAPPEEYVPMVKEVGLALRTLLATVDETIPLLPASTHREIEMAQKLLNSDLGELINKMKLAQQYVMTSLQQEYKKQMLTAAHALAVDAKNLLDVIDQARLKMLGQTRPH
Method: The compound serially diluted with DMSO and a FAK recombinant protein were mixed, and the mixture was left to stand at room temperature for 10 min. A biotin-labeled TK substrate (TK) and ATP were then added. […] After the mixture was incubated at room temperature for 1 h, the fluorescence intensity at 615 nm and 665 nm was measured. The ratio of the fluorescence intensity at 665 nm and 615 nm was calculated. The inhibition percentages and IC50 of the compounds were calculated compared to the DMSO control group.

Compound | IC50 (PC3 cells [1]) [nM] | IC50 (PC3 cells [2]) [nM] | IC50 (FAK recombinant protein) [nM]
COc1cc(C(=O)NC2CCC3(CC2)CN(C)C3)c(F)cc1Nc1ncc(C(F)(F)F)c(Cc2cccc3c2C(=O)N(C)C3)n1 [Compound 50] | > 2000 | 5 to 50 | < 10
COc1cc(C(=O)NC2CCC3(CC2)CCN(C)C3)c(F)cc1Nc1ncc(C(F)(F)F)c(Cc2cccc3c2C(=O)N(C)C3)n1 (stereo not drawn) [Compound 53] | > 2000 | 5 to 50 | < 10
COc1cc(C(=O)NC2CCC3(CC2)CCN(C)CC3)c(F)cc1Nc1ncc(C(F)(F)F)c(Cc2cccc3c2C(=O)N(C)C3)n1 [Compound 54] | > 2000 | 5 to 50 | 10 to 50
COc1cc(C(=O)NC2CC3(CCN(C)CC3)C2)c(Cl)cc1Nc1ncc(C(F)(F)F)c(Cc2cccc3c2C(=O)N(C)C3)n1 [Compound 55] | > 2000 | < 5 | < 10
COc1cc(C(=O)NC2CCC3(CC2)CN(C)C3)c(Cl)cc1Nc1ncc(C(F)(F)F)c(Cc2cccc3c2C(=O)N(C)C3)n1 [Compound 56] | > 2000 | 5 to 50 | < 10
COc1cc(C(=O)NC2CC3(CCN(C)CC3)C2)ccc1Nc1ncc(C(F)(F)F)c(Cc2cccc3c2C(=O)N(C)C3)n1 [Compound 57] | > 2000 | < 5 | < 10
COc1cc(C(=O)NC2CCC3(CC2)CN(C)C3)ccc1Nc1ncc(C(F)(F)F)c(Cc2cccc3c2C(=O)N(C)C3)n1 [Compound 58] | > 2000 | 5 to 50 | < 10
COc1cc(N2CCC3(CCN(C)CC3)C2=O)c(F)cc1Nc1ncc(C(F)(F)F)c(Oc2cccc3c2C(=O)N(C)C3)n1 [Compound 61, 2-(2-fluoro-5-methoxy-4-((4-((2-methyl-3-oxoisoindol-4-yl)oxy)-5-(trifluoromethyl)pyrimidin-2-yl)amino)phenyl)-8-methyl-2,8-diazaspiro[4.5]decan-1-one] | > 2000 | 5 to 50 | < 10
COc1cc(N2CC3(CCN(C)CC3)OC2=O)c(F)cc1Nc1ncc(C(F)(F)F)c(Oc2cccc3c2C(=O)N(C)C3)n1 [Compound 63] | > 2000 | 5 to 50 | 10 to 50
COc1cc(N2CC3(CCC2=O)CCN(C)CC3)c(F)cc1Nc1ncc(C(F)(F)F)c(Oc2cccc3c2C(=O)N(C)C3)n1 [Compound 65] | > 2000 | > 50 | > 50
COc1cc(C2=NOC3(CCN(C)CC3)C2)ccc1Nc1ncc(C(F)(F)F)c(Oc2cccc3c2C(=O)N(C)C3)n1 [Compound 68] | > 2000 | 5 to 50 | 10 to 50
COc1cc(C(=O)NC2CC3(CCN(C)CC3)C2)c(F)cc1Nc1ncc(C(F)(F)F)c(Oc2cccc3c2C(=O)N(C)C3C)n1 (stereo not drawn) [Compound 70, 4-((4-((1,2-dimethyl-3-oxoisoindol-4-yl)oxy)-5-(trifluoromethyl)pyrimidin-2-yl)amino)-2-fluoro-5-methoxy-N-(7-methyl-7-azaspiro[3.5]nonan-2-yl)benzamide] | > 2000 | < 5 | < 10
COc1cc(C(=O)NC2CC3(CCN(C)CC3)C2)ccc1Nc1ncc(C(F)(F)F)c(Oc2cccc3c2C(=O)N(C)C3C)n1 (stereo not drawn) [Compound 72] | > 2000 | < 5 | < 10
COc1cc(C(=O)NC2CCC3(CC2)CN(C)C3)ccc1Nc1ncc(C(F)(F)F)c(Oc2cccc3c2C(=O)N(C)C3C)n1 (stereo not drawn) [Compound 73] | > 2000 | 5 to 50 | < 10
COc1cc(C(=O)NC2CC3(CCN(C)CC3)C2)c(F)cc1Nc1ncc(C(F)(F)F)c(Cc2cccc3c2C(=O)N(C)C3C)n1 (stereo not drawn) [Compound 74, 4-((4-((1,2-dimethyl-3-oxoisoindol-4-yl)methyl)-5-(trifluoromethyl)pyrimidin-2-yl)amino)-2-fluoro-5-methoxy-N-(7-methyl-7-azaspiro[3.5]nonan-2-yl)benzamide] | > 2000 | 5 to 50 | < 10
COc1cc(C(=O)NC2CC3(CCN(C)CC3)C2)ccc1Nc1ncc(C(F)(F)F)c(Cc2cccc3c2C(=O)N(C)C3C)n1 (stereo not drawn) [Compound 75] | > 2000 | 5 to 50 | < 10
COc1cc(C(=O)NC2CC3(CCN(C)CC3)C2)c(F)cc1Nc1ncc(C(F)(F)F)c(Oc2cccc3c2C(=O)N(C)C3(C)C)n1 [Compound 76] | > 2000 | 5 to 50 | < 10
COc1cc(C(=O)NC2CCC3(CC2)CN(C)C3)c(F)cc1Nc1ncc(C(F)(F)F)c(Oc2cccc3c2C(=O)N(C)C3(C)C)n1 [Compound 77] | > 2000 | 5 to 50 | < 10
COc1cc(C(=O)NC2CC3(CCN(C)CC3)C2)ccc1Nc1ncc(C(F)(F)F)c(Oc2cccc3c2C(=O)N(C)C3(C)C)n1 [Compound 78] | > 2000 | 5 to 50 | < 10

Compound | IC50 (PC3 cells [1]) [nM] | IC50 (PC3 cells [2]) [nM] | IC50 (FAK recombinant protein) [nM]
COc1cc(C(=O)NC2CC3(CCN(C)CC3)C2)c(F)cc1Nc1ncc(C(F)(F)F)c(Oc2cccc3c2C(=O)N(OC)C3)n1 [Compound 79] | > 2000 | < 5 | < 10
COc1cc(C(=O)NC2CC3(CCN(C)CC3)C2)ccc1Nc1ncc(C(F)(F)F)c(Oc2cccc3c2C(=O)N(OC)C3)n1 [Compound 81] | > 2000 | < 5 | < 10
COc1cc(C(=O)NC2CC3(CCN(C)CC3)C2)c(F)cc1Nc1ncc(C(F)(F)F)c(Oc2cccc3c2C(=O)CC3)n1 [Compound 82] | > 2000 | 5 to 50 | < 10
COc1cc(C(=O)NC2CC3(CCN(C)CC3)C2)ccc1Nc1ncc(C(F)(F)F)c(Oc2cccc3c2C(=O)CC3)n1 [Compound 83] | > 2000 | 5 to 50 | < 10
COc1cc(C(=O)NC2CC3(CCN(C)CC3)C2)c(F)cc1Nc1ncc(C(F)(F)F)c(Cc2cccc3c2C(=O)CC3)n1 [Compound 84] | > 2000 | 5 to 50 | < 10
CCc1cc(C(=O)NC2CC3(CCN(C)CC3)C2)c(F)cc1Nc1ncc(C(F)(F)F)c(Oc2cccc3c2C(=O)N(C)C3)n1 [Compound 85, 2-fluoro-4-((4-((2-methyl-3-oxoisoindol-4-yl)oxy)-5-(trifluoromethyl)pyrimidin-2-yl)amino)-N-(7-methyl-7-azaspiro[3.5]nonan-2-yl)-5-ethylbenzamide] | > 2000 | 5 to 50 | 10 to 50
COc1cc(C(=O)NC2CC3(CCN(C)CC3)C2)c(-c2cnn(C)c2)cc1Nc1ncc(C(F)(F)F)c(Oc2cccc3c2C(=O)N(C)C3)n1 [Compound 88] | > 2000 | 5 to 50 | 10 to 50
COc1cc(N2CCC3(CC2)CN(C)C3)c(F)cc1Nc1ncc(C(F)(F)F)c(Oc2cccc3c2C(=O)N(C)C3)n1 [Compound 91] | > 2000 | < 5 | < 10
COc1cc(N2CCC3(CCN(C)CC3)CC2)c(F)cc1Nc1ncc(C(F)(F)F)c(Oc2cccc3c2C(=O)N(C)C3)n1 [Compound 93] | > 2000 | < 5 | < 10
COc1cc(N2CCC3(CCN(C)C3)CC2)ccc1Nc1ncc(C(F)(F)F)c(Oc2cccc3c2C(=O)N(C)C3)n1 [Compound 95] | > 2000 | < 5 | < 10
COc1cc(N2CCC3(CCN(C)CC3)C2)ccc1Nc1ncc(C(F)(F)F)c(Oc2cccc3c2C(=O)N(C)C3)n1 [Compound 96] | > 2000 | < 5 | < 10
COc1cc(N2CCC23CCN(C)CC3)ccc1Nc1ncc(C(F)(F)F)c(Oc2cccc3c2C(=O)N(C)C3)n1 [Compound 97] | > 2000 | < 5 | < 10
COc1cc(N2CCC3(CCN(C)C3)C2)ccc1Nc1ncc(C(F)(F)F)c(Oc2cccc3c2C(=O)N(C)C3)n1 (stereo not drawn) [Compound 98] | > 2000 | < 5 | < 10
CCN1CCC2(CC1)CN(c1ccc(Nc3ncc(C(F)(F)F)c(Oc4cccc5c4C(=O)N(C)C5)n3)c(OC)c1)C2 [Compound 103] | > 2000 | < 5 | < 10
COc1cc(N2CC3(CCN(C4CC4)CC3)C2)ccc1Nc1ncc(C(F)(F)F)c(Oc2cccc3c2C(=O)N(C)C3)n1 [Compound 104] | > 2000 | < 5 | < 10
COc1cc(N2CC3(CCN(C4CCC4)CC3)C2)ccc1Nc1ncc(C(F)(F)F)c(Oc2cccc3c2C(=O)N(C)C3)n1 [Compound 105] | > 2000 | < 5 | < 10
COc1cc(N2CC3(CCN(CC4CC4)CC3)C2)ccc1Nc1ncc(C(F)(F)F)c(Oc2cccc3c2C(=O)N(C)C3)n1 [Compound 106] | > 2000 | < 5 | < 10
COc1cc(N2CC3(CCNCC3)C2)c(F)cc1Nc1ncc(C(F)(F)F)c(Oc2cccc3c2C(=O)N(C)C3)n1 [Compound 107, 7-((2-((5-fluoro-2-methoxy-4-(2,7-diazaspiro[3.5]non-2-yl)phenyl)amino)-5-(trifluoromethyl)pyrimidin-4-yl)oxy)-2-methylisoindolin-1-one] | > 2000 | < 5 | < 10
